Consider 8 molecules from ChEMBL document CHEMBL4316624, “Analyzing the role of cannabinoids as modulators of Wnt/β-catenin signaling pathway for their use in the management of neuropathic pain” (Bioorg Med Chem Lett, 2019).

One may read the IC50 as the concentration needed to halve the response being measured.

The source made the active and inactive calls. The rule behind the calls is not given here.

Series [1] concerns HCT-116. The series can be described thus: Cytotoxicity against human HCT116 cells assessed as reduction in cell viability incubated for 72 hrs by MTT assay. The following applies: HCT-116, 72 h. Type of series: cell-based.
Series [2] has as its system OVCAR. The series can be described thus: Cytotoxicity against human OVCAR cells assessed as reduction in cell viability incubated for 72 hrs by MTT assay. In kind it is cell-based. On the technique in general: Tetrazolium dyes change colour on reduction, which living cells bring about.
For series [3], the system named is A549. The series can be described thus: Cytotoxicity against human A549 cells assessed as reduction in cell viability incubated for 72 hrs by MTT assay. Type of series: cell-based. To be noted: A549, 72 h.
Series [4] deals with MCF7. Put plainly: Cytotoxicity against human MCF7 cells assessed as reduction in cell viability incubated for 72 hrs by MTT assay. In kind it is cell-based. The following applies: MCF7, 72 h.
For series [5], the system named is PC-3. The series can be described thus: Cytotoxicity against human PC3 cells assessed as reduction in cell viability incubated for 72 hrs by MTT assay. Type of series: cell-based. The following applies: PC-3, 72 h.
Series [6] concerns HepG2. Put plainly: Cytotoxicity against human HepG2 cells assessed as reduction in cell viability incubated for 72 hrs by MTT assay. The following applies: HepG2, 72 h. Type of series: cell-based.
Series [7] has as its system SH-SY5Y. Put plainly: Cytotoxicity against human SH-SY5Y cells assessed as reduction in cell viability incubated for 72 hrs by MTT assay. Type of series: cell-based.
In series [8] the test system is HCT-116. The series can be described thus: Cytotoxicity against human HCT116 cells assessed as reduction in cell viability incubated for 24 to 72 hrs by MTT assay. In kind it is cell-based.
Series [9] concerns OVCAR. The series can be described thus: Cytotoxicity against human OVCAR cells assessed as reduction in cell viability incubated for 24 to 72 hrs by MTT assay. In kind it is ADME, cell-based.
Series [10] relates to A549. The series can be described thus: Cytotoxicity against human A549 cells assessed as reduction in cell viability incubated for 24 to 72 hrs by MTT assay. Type of series: cell-based.
In series [11] the test system is MCF7. Put plainly: Cytotoxicity against human MCF7 cells assessed as reduction in cell viability incubated for 24 to 72 hrs by MTT assay. In kind it is cell-based.
The subject of series [12] is PC-3. The series can be described thus: Cytotoxicity against human PC3 cells assessed as reduction in cell viability incubated for 24 to 72 hrs by MTT assay. Type of series: cell-based.
In series [13] the test system is HepG2. The series can be described thus: Cytotoxicity against human HepG2 cells assessed as reduction in cell viability incubated for 24 to 72 hrs by MTT assay. Type of series: cell-based.
Series [14] concerns SH-SY5Y. The series can be described thus: Cytotoxicity against human SH-SY5Y cells assessed as reduction in cell viability incubated for 24 to 72 hrs by MTT assay. Type of series: cell-based.
Series [15] has as its system HepG2. The series can be described thus: Inhibition of Wnt/beta-catenin signaling pathway in human HepG2 cells assessed as reduction in TCF-dependent beta-catenin mediated transcription at 20 to 40 uM incubated for 24 hrs by Topflash reporter assay. Type of series: cell-based.
Series [16] concerns HepG2. Put plainly: Inhibition of Wnt/beta-catenin signaling pathway in human HepG2 cells assessed as reduction in TCF-dependent beta-catenin mediated transcription at 5 to 40 uM incubated for 24 hrs by Topflash reporter assay. In kind it is cell-based. (In general: A reporter such as luciferase makes a cellular process visible.)
The subject of series [17] is HepG2. Put plainly: Inhibition of Wnt/beta-catenin signaling pathway in human HepG2 cells assessed as reduction in TCF-dependent beta-catenin mediated transcription incubated for 24 hrs by Topflash reporter assay. Type of series: cell-based.

For the molecule `CCCCCc1cc(O)c2c(c1)OC(C)(CCC=C(C)C)C=C2` (configuration not stated) [CANNABICHROMENE], the IC50 in the series on HCT-116 [1] came to 60 µM; in the series with OVCAR [2], 65 µM; in the series on A549 [3], 60 µM; with MCF7 [4] it was 40 µM; in the series on PC-3 [5], 40 µM; in the series with HepG2 [6], 60 µM. The IC50 in the series with SH-SY5Y [7] was found to be 77 µM. Also, the Activity entry in the series with HCT-116 [8], in the series on OVCAR [9], in the series on A549 [10], in the series with MCF7 [11], in the series on PC-3 [12] and in the series on HepG2 [13] was “Dose-dependent effect” each time. Further, the Activity entry in the series on SH-SY5Y [14] is listed as “Dose-dependent effect”. Also, in the series on HepG2 [15], the inhibition result was “inactive”.

As to `CCCCCc1cc(O)c2c(c1)OC(C)(C)c1ccc(C)cc1-2` [CANNABINOL], the IC50 in the series with HCT-116 [1] was 80 µM; in the series on OVCAR [2], 77 µM; in the series with A549 [3], 91 µM; in the series on MCF7 [4], 81 µM; in the series with PC-3 [5] it was 78 µM; in the series with HepG2 [6], 74 µM. Besides, the IC50 with SH-SY5Y [7] was 97 µM. In addition, the Activity entry with HCT-116 [8], with OVCAR [9], in the series on A549 [10], in the series on MCF7 [11], in the series on PC-3 [12] and with HepG2 [13] was “Dose-dependent effect” throughout. The Activity entry in the series with SH-SY5Y [14] was “Dose-dependent effect”. For the same molecule, the inhibition result in the series with HepG2 [16] was “inactive”.

With `C=C(C)[C@@H]1CCC(C)=C[C@H]1c1c(O)cc(CCCCC)cc1O` [CANNABIDIOL], the 50% inhibitory concentration (IC50) was found to be 18 µM in the series on HCT-116 [1]; 50 µM in the series on OVCAR [2]; 40 µM in the series on A549 [3]; 55 µM with MCF7 [4]; 12 µM with PC-3 [5]; 42.8 µM in the series with HepG2 [6]. Also, the IC50 in the series on SH-SY5Y [7] was 48 µM. Besides, the Activity result in the series on HCT-116 [8], in the series on OVCAR [9], in the series with A549 [10], with MCF7 [11], in the series with PC-3 [12] and with HepG2 [13] was “Dose-dependent effect” throughout. Also, in the series on SH-SY5Y [14], the Activity result is reported as “Dose-dependent effect”. Further, the inhibition entry in the series with HepG2 [17] was “Dose-dependent effect”.

As for `C=C(C)[C@@H]1CCC(C)=C[C@H]1c1c(O)cc(CCC)cc1O` [CANNABIDIVARIN], the IC50 came out at 13 µM with HCT-116 [1]; 57 µM in the series on OVCAR [2]; 39 µM with A549 [3]; 53 µM in the series on MCF7 [4]; 44 µM in the series on PC-3 [5]; 64 µM with HepG2 [6]. The IC50 with SH-SY5Y [7] came out at 55 µM. For the same molecule, the Activity result with HCT-116 [8], with OVCAR [9], in the series on A549 [10], in the series on MCF7 [11], with PC-3 [12] and with HepG2 [13] was “Dose-dependent effect” in each case. Moreover, the Activity entry in the series with SH-SY5Y [14] is “Dose-dependent effect”. Further, the inhibition entry with HepG2 [17] was “Dose-dependent effect”.

For the molecule `C=C(C)[C@@H]1CC[C@H]2O[C@H]2[C@H]1c1c(O)cc(CCCCC)cc1O`, the IC50 with HCT-116 [1] came out at 15.3 µM; in the series on OVCAR [2], 56.8 µM; in the series with A549 [3], 45.2 µM; with MCF7 [4] it was 47.2 µM; with PC-3 [5], 17.6 µM; in the series with HepG2 [6], 53 µM. Also, the IC50 with SH-SY5Y [7] stood at 51 µM. The Activity entry in the series with HCT-116 [8], with OVCAR [9], with A549 [10], in the series with MCF7 [11], in the series on PC-3 [12] and in the series on HepG2 [13] was “Dose-dependent effect” each time. Besides, in the series with SH-SY5Y [14], the Activity result is given as “Dose-dependent effect”. In addition, in the series with HepG2 [17], the inhibition result is “Dose-dependent effect”.

Regarding `CC[C@@H](C(=O)[C@@H](C)[C@@H](O)[C@H](C)[C@@H]1O[C@@H]([C@@H](CC)C(=O)O)CC[C@@H]1C)[C@H]1O[C@]2(C=C[C@@H](O)[C@]3(CC[C@@](C)([C@H]4CC[C@](O)(CC)[C@H](C)O4)O3)O2)[C@H](C)C[C@@H]1C` [SALINOMYCIN], the concentration for half-maximal inhibition (IC50) in the series with HepG2 [6] was determined as 24.5 µM. In addition, the inhibition entry in the series on HepG2 [17] is “Dose-dependent effect”.

On to `CCCCCc1cc(O)c2c(c1)OC(C)(C)[C@@H]1CCC(C)=C[C@@H]21` [DRONABINOL], for which the IC50 in the series with HCT-116 [1] stood at 42 µM; in the series with OVCAR [2] it was 63 µM; in the series on A549 [3], 45 µM; in the series with MCF7 [4], 57 µM; in the series with PC-3 [5], 65 µM; with HepG2 [6], 59 µM. The IC50 in the series on SH-SY5Y [7] is 50 µM. For the same molecule, the Activity result with HCT-116 [8], in the series on OVCAR [9], in the series with A549 [10], in the series with MCF7 [11], with PC-3 [12] and in the series on HepG2 [13] was “Dose-dependent effect” throughout. Moreover, the Activity result in the series on SH-SY5Y [14] is “Dose-dependent effect”. The inhibition entry with HepG2 [15] is “inactive”.

Consider `CCCc1cc(O)c2c(c1)OC(C)(C)[C@@H]1CCC(C)=C[C@@H]21` [TETRAHYDROCANNABIVARIN], for which the concentration for half-maximal inhibition (IC50) in the series with HCT-116 [1] is 83 µM; with OVCAR [2] it was 75 µM; in the series on A549 [3] it was 90 µM; with MCF7 [4], 80 µM; in the series on PC-3 [5], 79 µM; in the series with HepG2 [6] it was 75 µM. The IC50 with SH-SY5Y [7] was determined as 95 µM. Moreover, the Activity result in the series on HCT-116 [8], with OVCAR [9], in the series on A549 [10], in the series with MCF7 [11], in the series with PC-3 [12] and in the series with HepG2 [13] was “Dose-dependent effect” throughout. In addition, the Activity result in the series with SH-SY5Y [14] is on record as “Dose-dependent effect”. For the same molecule, the inhibition entry in the series on HepG2 [15] is “inactive”.
